In PubChem BioAssay (NCI) one finds TGI and GI50 data, which are given here for 8 compounds.

Holding throughout (assay): NCI-60 cell line screen, 48 h
Experiment [1] relates to COLO 205 colon.
Experiment [2] concerns RPMI-8226 leukemia.
Experiment [3] deals with M14 melanoma.
The test system of experiment [4] is LOX IMVI melanoma.
In experiment [5] the test system is KM12 colon.
Experiment [6] concerns TK-10 renal.
The test system of experiment [7] is HCT-116 colon.
For experiment [8], the system named is NCI-H522 lung.
Experiment [9] concerns CCRF-CEM leukemia.
The test system of experiment [10] is DU-145 prostate.

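Compound exposure: 48 hours, 5 concentrations, 96-well plates. GI50 is the concentration that inhibits growth by half. TGI is the concentration that stops growth completely.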

Regarding `O=C(c1ccc(Cl)cc1)c1cnc(Nc2ccccc2Cl)s1`, the TGI in [1] is more than 100 µM; in experiment [2], more than 100 µM; in experiment [3], more than 31.6 µM; in experiment [4] it was more than 100 µM; in experiment [5], more than 78.3 µM; in [6], 34.9 µM. Further, the TGI in [7] is 41.7 µM; in experiment [8] it was 53.1 µM; in experiment [9], more than 100 µM; in experiment [10], 48.7 µM.
Turning to `COc1ccc2[nH]cc(-c3nc(-c4c[nH]c5ncccc45)cs3)c2c1`, the GI50 in experiment [1] is 661 nM; in experiment [2], 4.76 µM; in experiment [3] it was 2.99 µM; in experiment [4], 2.83 µM; in [5], 3.56 µM; in experiment [6] it was 5.47 µM. Besides, the GI50 was 2.9 µM in experiment [7], 8.02 µM in [8], 4.07 µM in [9] and 5.69 µM in [10]. Further, the TGI was 3.88 µM in experiment [1]; more than 100 µM in [2]; more than 100 µM in [3]; more than 100 µM in [4]; more than 100 µM in experiment [5]; more than 100 µM in experiment [6]. In addition, the TGI is 21 µM in experiment [7], more than 100 µM in experiment [8], more than 100 µM in experiment [9] and more than 100 µM in experiment [10].
As to `Cc1csc(Nc2nc(-c3cccc(Br)c3)nc(C(Cl)(Cl)Cl)n2)n1`, the GI50 in experiment [1] is 855 nM; in experiment [2], 2.19 µM; in [3], more than 100 µM; in [4], more than 100 µM; in experiment [5], 1.58 µM; in experiment [6], 2.25 µM. Further, the GI50 in [7] was 3.05 µM; in experiment [8], more than 100 µM; in experiment [9], more than 100 µM; in experiment [10], 0.419 µM. For the same compound, the TGI in [1] was more than 23.3 µM; in experiment [2], more than 100 µM; in experiment [3], more than 100 µM; in [4], more than 100 µM; in experiment [5] it was 4.82 µM; in experiment [6], more than 100 µM. For the same compound, the TGI was more than 100 µM in experiment [7], more than 100 µM in experiment [8], more than 100 µM in experiment [9] and 3.21 µM in experiment [10].
As to `Cc1[nH]c2ccccc2c1-c1cc(-c2cc(-c3c(C)[nH]c4ccccc34)on2)no1`, the TGI in experiment [1], in [2], in experiment [3], in [4], in experiment [5] and in experiment [6] was more than 100 µM in each case. The TGI in [7], in experiment [8], in experiment [9] and in experiment [10] was more than 100 µM each time.
As to `CCN(CC)c1nc(-c2ccc(Cl)cc2Cl)nc2ccccc12`, the GI50 in experiment [1] is 19500 nM; in experiment [2], 32.1 µM; in [3], 18 µM; in [4], 17.1 µM; in [5], 20.2 µM; in experiment [6] it was 23.8 µM. The GI50 in experiment [7] was 14.8 µM; in experiment [8], 29.2 µM; in [9], 10.4 µM; in experiment [10], 13.6 µM. For the same compound, the TGI in experiment [1] was 48.8 µM; in [2], more than 100 µM; in [3], 37.9 µM; in experiment [4], 36 µM; in [5], 59.8 µM; in experiment [6] it was 63.3 µM. Moreover, the TGI in experiment [7] is 29 µM; in [8] it was more than 74.9 µM; in experiment [9], more than 100 µM; in experiment [10] it was more than 58.9 µM.
On to `O=c1[nH]c(=O)n(C2CC(O)C(CO)O2)cc1CO` (stereo not given), for which the GI50 in [1] was more than 100000 nM; in experiment [2] it was more than 100 µM; in experiment [3], more than 100 µM; in experiment [4], more than 100 µM; in [5], more than 100 µM; in [6] it was more than 100 µM. Moreover, the GI50 in experiment [7], in experiment [8], in experiment [9] and in [10] was more than 100 µM throughout. Further, the TGI in experiment [1], in [2], in [3], in [4], in [5] and in [6] was more than 100 µM each time. Moreover, the TGI in [7], in [8], in experiment [9] and in [10] was more than 100 µM each time.
With `CC(C)=CCc1cc(O)cc2c1OC(C=C(C)C)C1=C2C(=O)C2=C(NCCS2(=O)=O)C1=O` (stereo not given), the GI50 was 2670 nM in [1]; 4.42 µM in experiment [2]; 0.646 µM in experiment [3]; 2.04 µM in experiment [4]; 4.29 µM in [5]; 5.51 µM in experiment [6]. Besides, the GI50 is 0.611 µM in experiment [7], 2.64 µM in [8], 4.05 µM in experiment [9] and 2.18 µM in [10]. Moreover, the TGI in experiment [1] was 5.57 µM; in experiment [2], 14 µM; in experiment [3], 2.69 µM; in experiment [4] it was 5 µM; in experiment [5] it was more than 16.7 µM; in experiment [6] it was 16.2 µM. In addition, the TGI is 2.45 µM in [7], 7.41 µM in experiment [8], more than 16.7 µM in [9] and 4.31 µM in experiment [10].
Consider `CCCn1c(N)c(C(=O)N/N=C(/C)c2cc3cccc(OC)c3o2)sc1=S`, for which the GI50 was 56700 nM in experiment [1]; 53.6 µM in [2]; 53.8 µM in experiment [3]; 16.5 µM in experiment [4]; 22.2 µM in experiment [5]; 28.8 µM in experiment [6]. Further, the GI50 in [7] was 17.4 µM; in [8], 51.6 µM; in [9], 30.7 µM; in experiment [10] it was 26.4 µM. In addition, the TGI in experiment [1], in [2], in experiment [3], in experiment [4], in [5] and in experiment [6] was more than 100 µM throughout. The TGI in experiment [7], in experiment [8], in experiment [9] and in experiment [10] was more than 100 µM throughout.
